Format in all cases: cell-based
The target in test [1] is T1, human AR (full-length) (Homo sapiens, UniProt P10275).
T1 construct: expression vectors encoding full-length steroid receptors: pcDNA3-hAR and pcDNA3-hGR; host or cells: U2OS
T1 sequence (P10275 1-920): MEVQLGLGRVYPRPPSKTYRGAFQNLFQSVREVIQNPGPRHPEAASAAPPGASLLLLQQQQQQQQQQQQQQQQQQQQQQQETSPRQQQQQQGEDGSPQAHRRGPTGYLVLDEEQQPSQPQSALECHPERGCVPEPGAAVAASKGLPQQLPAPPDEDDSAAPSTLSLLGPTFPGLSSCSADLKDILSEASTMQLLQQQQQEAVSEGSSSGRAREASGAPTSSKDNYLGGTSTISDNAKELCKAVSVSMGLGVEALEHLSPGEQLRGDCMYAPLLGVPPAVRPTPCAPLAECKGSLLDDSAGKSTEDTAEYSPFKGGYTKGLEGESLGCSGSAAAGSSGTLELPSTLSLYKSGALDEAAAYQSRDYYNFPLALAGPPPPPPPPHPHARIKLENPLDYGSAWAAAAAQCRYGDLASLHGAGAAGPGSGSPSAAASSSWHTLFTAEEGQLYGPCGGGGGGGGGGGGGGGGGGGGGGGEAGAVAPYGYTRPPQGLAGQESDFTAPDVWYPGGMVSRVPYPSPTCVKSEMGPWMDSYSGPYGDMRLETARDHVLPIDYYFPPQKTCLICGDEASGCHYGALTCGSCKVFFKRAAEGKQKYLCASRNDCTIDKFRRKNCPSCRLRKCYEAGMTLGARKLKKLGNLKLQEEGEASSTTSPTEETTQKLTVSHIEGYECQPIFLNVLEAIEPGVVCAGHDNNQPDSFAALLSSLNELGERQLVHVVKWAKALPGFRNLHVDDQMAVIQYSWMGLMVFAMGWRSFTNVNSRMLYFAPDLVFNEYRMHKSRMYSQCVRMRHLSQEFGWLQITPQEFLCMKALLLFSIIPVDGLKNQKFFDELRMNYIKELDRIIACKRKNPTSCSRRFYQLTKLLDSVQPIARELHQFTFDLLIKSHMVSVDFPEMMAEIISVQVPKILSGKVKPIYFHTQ
Description: U2OS-AR/MMTV luciferase reporter cell line (full-length receptor). The note with it: for Log EC50: agonist mode, 20 h, log10 of molar EC50, mean ± SEM; for Log EC50 / Log IC50: AR/MMTV; for Log IC50: antagonist mode, in the presence of 0.05 nM dihydrotestosterone, log10 of molar IC50, mean ± SEM. On the technique in general: In a reporter assay the amount or activity of a reporter protein is the signal.

In test [2] the target is T1, human AR (full-length). Description: U2OS-AR/3xGRE luciferase reporter cell line (full-length receptor). Conditions: for Log EC50: agonist mode, 20 h, log10 of molar EC50, mean ± SEM; for Log EC50 / Log IC50: AR/3xGRE; for Log IC50: antagonist mode, in the presence of 0.05 nM dihydrotestosterone, log10 of molar IC50, mean ± SEM.
Another test concerns the target T2, human MR (full-length) (Homo sapiens, UniProt P08235).
T2 construct: expression vectors encoding full-length steroid receptors: pcDNA3-hAR, pcDNA3-hGR and pcDNA3-hMR; expressed in transfected cells; host or cells: U2OS
T2 sequence (P08235 1-984): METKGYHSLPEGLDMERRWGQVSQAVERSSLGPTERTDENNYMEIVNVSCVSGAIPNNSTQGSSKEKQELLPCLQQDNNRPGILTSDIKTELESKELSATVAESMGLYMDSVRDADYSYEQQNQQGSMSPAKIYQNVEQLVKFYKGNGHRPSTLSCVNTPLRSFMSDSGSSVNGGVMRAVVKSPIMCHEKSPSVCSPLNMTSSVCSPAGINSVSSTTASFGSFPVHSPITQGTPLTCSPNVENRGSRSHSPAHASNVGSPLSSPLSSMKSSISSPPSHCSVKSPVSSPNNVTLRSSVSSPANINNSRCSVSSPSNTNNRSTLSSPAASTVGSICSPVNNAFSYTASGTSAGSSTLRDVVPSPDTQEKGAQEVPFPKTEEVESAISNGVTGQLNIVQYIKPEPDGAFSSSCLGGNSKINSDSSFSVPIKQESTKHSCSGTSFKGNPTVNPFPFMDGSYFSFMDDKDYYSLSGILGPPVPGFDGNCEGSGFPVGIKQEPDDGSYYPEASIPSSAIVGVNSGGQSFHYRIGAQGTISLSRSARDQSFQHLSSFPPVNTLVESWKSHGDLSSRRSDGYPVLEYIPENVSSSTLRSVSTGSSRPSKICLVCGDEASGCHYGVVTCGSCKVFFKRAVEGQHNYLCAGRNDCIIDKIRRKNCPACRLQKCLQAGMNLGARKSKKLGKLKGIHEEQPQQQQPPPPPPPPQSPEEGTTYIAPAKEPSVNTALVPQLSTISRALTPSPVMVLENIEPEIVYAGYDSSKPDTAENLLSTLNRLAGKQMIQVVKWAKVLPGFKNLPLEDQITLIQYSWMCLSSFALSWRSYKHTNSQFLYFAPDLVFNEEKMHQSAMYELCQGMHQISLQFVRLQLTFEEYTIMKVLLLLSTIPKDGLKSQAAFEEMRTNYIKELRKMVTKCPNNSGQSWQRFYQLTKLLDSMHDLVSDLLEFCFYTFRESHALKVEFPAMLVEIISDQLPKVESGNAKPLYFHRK
Description: U2OS-MR/MMTV luciferase reporter cell line (full-length receptor). Conditions: for Log EC50: agonist mode, 20 h, log10 of molar EC50, mean ± SEM; for Log EC50 / Log IC50: MR/MMTV; for Log IC50: in the presence of 1 nM aldosterone, log10 of molar IC50, mean ± SEM.

In a further test the target is T3, human GR (full-length) (Homo sapiens, UniProt P04150).
T3 construct: expression vectors encoding full-length steroid receptors: pcDNA3-hAR and pcDNA3-hGR; host or cells: U2OS
T3 sequence (P04150 1-777): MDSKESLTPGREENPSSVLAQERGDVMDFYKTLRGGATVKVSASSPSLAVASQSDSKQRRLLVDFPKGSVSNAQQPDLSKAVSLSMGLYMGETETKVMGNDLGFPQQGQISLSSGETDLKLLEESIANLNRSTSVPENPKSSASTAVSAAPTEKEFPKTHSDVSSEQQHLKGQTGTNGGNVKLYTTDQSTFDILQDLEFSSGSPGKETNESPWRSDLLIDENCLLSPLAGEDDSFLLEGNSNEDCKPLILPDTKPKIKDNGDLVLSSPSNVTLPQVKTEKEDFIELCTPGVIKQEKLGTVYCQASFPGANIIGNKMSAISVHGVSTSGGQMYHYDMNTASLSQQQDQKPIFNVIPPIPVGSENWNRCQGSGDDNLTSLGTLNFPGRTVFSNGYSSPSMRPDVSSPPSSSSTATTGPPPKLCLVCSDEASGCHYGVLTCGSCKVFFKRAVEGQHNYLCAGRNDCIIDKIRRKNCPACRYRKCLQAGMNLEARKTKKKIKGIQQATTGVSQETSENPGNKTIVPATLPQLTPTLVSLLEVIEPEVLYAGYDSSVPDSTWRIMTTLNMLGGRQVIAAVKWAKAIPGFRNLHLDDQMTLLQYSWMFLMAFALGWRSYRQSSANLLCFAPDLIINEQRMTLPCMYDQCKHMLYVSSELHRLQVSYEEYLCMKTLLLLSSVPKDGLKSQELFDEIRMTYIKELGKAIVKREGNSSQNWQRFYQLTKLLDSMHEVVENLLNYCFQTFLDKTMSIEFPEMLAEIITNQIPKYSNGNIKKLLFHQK
Description: U2OS-GR/3xGRE luciferase reporter cell line (full-length receptor). The note with it: for Log EC50: agonist mode, 20 h, log10 of molar EC50, mean ± SEM; for Log EC50 / Log IC50: GR/3xGRE; for Log IC50: antagonist mode, in the presence of 5 nM dexamethasone, log10 of molar IC50, mean ± SEM.

Each structure is given as a SMILES string. Where two headings read alike, the source gives them in different places.

Take `CC[C@@H]1Cc2cc(O)ccc2C2=C1c1ccc(O)cc1C[C@H]2CC` (relative stereo) [R.R-THC, (R,R)-cis-diethyltetrahydro-2,8-chrysenediol]: the “Log EC50” value on human AR (full-length) [1] is over -5.00 M; on human AR (full-length) [2], over -5.00 M; on human MR (full-length), over -5.40 M; at human GR (full-length), over -5.00 M. Also, the “Log IC50” value was -5.22 ± 1.26 M on human AR (full-length) [1], -5.26 ± 0.28 M at human AR (full-length) [2], -5.45 ± 0.22 M at human MR (full-length) (antagonist mode) and over -5.00 M on human GR (full-length).

What is called EC50 is the concentration giving half of the maximal effect. With `C[C@]12CCC(=O)C=C1CC[C@@H]1[C@@H]2[C@@H](O)C[C@]2(C=O)[C@@H](C(=O)CO)CC[C@@H]12` [Aldosterone, aldosterone], the values for the EC50 at human AR (full-length) [1], on human AR (full-length) [2] and at human GR (full-length) (read-out: Log EC50 (converted)) were over 10 µM, over 10 µM and 0.0302 µM, respectively.

For `C[C@H]1C[C@H]2[C@@H]3CCC4=CC(=O)C=C[C@]4(C)[C@@]3(Cl)[C@@H](O)C[C@]2(C)[C@@]1(O)C(=O)CO` [Beclomethasone, beclomethasone], the “Log EC50” value at human MR (full-length) is reported as -7.97 ± 0.12 M. Moreover, at human MR (full-length) (antagonist mode), the “Log IC50” value was over -5.00 M. In addition, the “activity profile in words” value at human MR (full-length) (full-length MR format, antagonist mode) was “no sign of antagonistic activity”.

As to `C[C@]12C[C@H](O)[C@H]3[C@@H](CCC4=CC(=O)CC[C@@]43C)[C@@H]1CC[C@@H]2C(=O)CO` [Corticosterone, corticosterone], the EC50 at human MR (full-length) (read-out: Log EC50 (converted)) was 8.13e-05 µM; at human GR (full-length) (read-out: Log EC50 (converted)) it was 0.00589 µM.

Regarding `C#C[C@]1(O)CC[C@H]2[C@@H]3CCC4=Cc5oncc5C[C@]4(C)[C@H]3CC[C@@]21C` [Danazol, danazol], the EC50 at human MR (full-length) (read-out: Log EC50 (converted)) and on human GR (full-length) (read-out: Log EC50 (converted)) was over 10 µM throughout.

On to `O=c1c(-c2ccc(O)cc2)coc2cc(O)cc(O)c12` [Genistein, genistein], for which the EC50 on human AR (full-length) [1], at human AR (full-length) [2], on human MR (full-length) and on human GR (full-length) was over 10 µM in each case.

With `C[C@]12CC[C@@H]3c4ccc(O)cc4C[C@@H](CCCCCCCCC[S+]([O-])CCCC(F)(F)C(F)(F)F)[C@H]3[C@@H]1CC[C@@H]2O` (some centres unmarked) [ICI 182.780], the “Log EC50” value at human AR (full-length) [1], on human AR (full-length) [2], on human MR (full-length) and on human GR (full-length) was over -5.00 M each time. The “Log IC50” value at human AR (full-length) [1], at human AR (full-length) [2], at human MR (full-length) (antagonist mode) and at human GR (full-length) was over -5.00 M throughout.

Regarding `CCCc1c(-c2ccc(O)cc2)nn(-c2ccc(O)cc2)c1-c1ccc(O)cc1` [PPT, propyl pyrazole triol], the EC50 at human AR (full-length) [1], at human AR (full-length) [2], at human MR (full-length) (read-out: Log EC50 (converted)) and at human GR (full-length) (read-out: Log EC50 (converted)) was over 10 µM throughout.

As usually defined, the IC50 is the concentration that inhibits the measured activity by half. A lower IC50 goes with inhibition by little substance. Take `CCC(=O)[C@@]1(C)CC[C@H]2[C@@H]3CCC4=CC(=O)CCC4=C3CC[C@@]21C` [Promegestone (R5020), promegestone]: the EC50 is over 10 µM at human AR (full-length) [1], over 10 µM on human AR (full-length) [2], over 10 µM on human MR (full-length) (read-out: Log EC50 (converted)) and over 3.16 µM at human GR (full-length) (read-out: Log EC50 (converted)). At human AR (full-length) [1], this compound gave an IC50 of 0.0126 µM.

Regarding `C[C@]12C=CC(=O)C=C1CC[C@H]1[C@@H]3C[C@@H](O)[C@](O)(C(=O)CO)[C@@]3(C)C[C@H](O)[C@@]12F` [Triamcinolone, triamcinolone], the EC50 was 0.186 µM on human MR (full-length) (read-out: Log EC50 (converted)) and 0.00468 µM at human GR (full-length) (read-out: Log EC50 (converted)).
